What was measured:
[1] = target: T1, Bromodomain testis-specific protein [21-137] (Homo sapiens, UniProt Q58F21); experiment: AlphaScreen BRD Binding Assay; conditions: pH 7.5; 25 °C
T1 construct: 21-137

[2] = target: T2, Bromodomain-containing protein 4 [44-168] (Human, UniProt O60885); experiment: AlphaScreen BRD Binding Assay; conditions: pH 7.5; 25 °C
T2 construct: 44-168

[3] = target: T3, Bromodomain-containing protein 2 [71-194,348-455] (Homo sapiens, UniProt P25440); experiment: Bromodomains Assay for DiscoveRx Gene Symbol
T3 construct: 71-194,348-455

[4] = target: T4, Bromodomain-containing protein 3 [306-416] (Homo sapiens, UniProt Q15059); experiment: Bromodomains Assay for DiscoveRx Gene Symbol
T4 construct: 306-416

[5] = target: T2, Bromodomain-containing protein 4 [44-168]; experiment: BROMOscan Assay
[6] = target: T5, Bromodomain-containing protein 4 [44-168,333-460] (Homo sapiens, UniProt O60885); experiment: BROMOscan Assay
T5 construct: 44-168,333-460

[7] = target: T6, Bromodomain testis-specific protein [251-382] (Homo sapiens, UniProt Q58F21); experiment: Bromodomains Assay for DiscoveRx Gene Symbol
T6 construct: 251-382

[8] = target: T1, Bromodomain testis-specific protein [21-137]; experiment: Bromodomains Assay for DiscoveRx Gene Symbol
[9] = target: T7, Bromodomain-containing protein 3 [24-144,306-416] (Homo sapiens, UniProt Q15059); experiment: Bromodomains Assay for DiscoveRx Gene Symbol
T7 construct: 24-144,306-416

[10] = target: T8, Bromodomain testis-specific protein [21-137,251-382] (Homo sapiens, UniProt Q58F21); experiment: Bromodomains Assay for DiscoveRx Gene Symbol
T8 construct: 21-137,251-382

[11] = target: T9, Bromodomain-containing protein 3 [24-144] (Homo sapiens, UniProt Q15059); experiment: Bromodomains Assay for DiscoveRx Gene Symbol
T9 construct: 24-144

[12] = target: T8, Bromodomain testis-specific protein [21-137,251-382]; experiment: BROMOscan Assay

T4 sequence (Q15059 306-416): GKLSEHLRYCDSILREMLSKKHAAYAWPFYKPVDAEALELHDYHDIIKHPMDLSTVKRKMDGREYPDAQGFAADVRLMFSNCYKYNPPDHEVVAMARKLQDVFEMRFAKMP
T9 sequence (Q15059 24-144): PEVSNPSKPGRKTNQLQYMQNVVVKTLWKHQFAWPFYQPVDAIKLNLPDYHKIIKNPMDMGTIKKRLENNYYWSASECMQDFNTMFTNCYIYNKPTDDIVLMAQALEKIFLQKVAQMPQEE
T3 sequence (P25440 as listed by the source): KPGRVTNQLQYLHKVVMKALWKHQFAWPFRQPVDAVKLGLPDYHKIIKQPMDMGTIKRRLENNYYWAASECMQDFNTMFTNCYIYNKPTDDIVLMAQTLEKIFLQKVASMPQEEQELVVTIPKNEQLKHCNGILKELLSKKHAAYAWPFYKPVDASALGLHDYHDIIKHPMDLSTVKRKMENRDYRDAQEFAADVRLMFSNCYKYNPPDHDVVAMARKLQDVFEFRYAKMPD
T7 sequence (Q15059 as listed by the source): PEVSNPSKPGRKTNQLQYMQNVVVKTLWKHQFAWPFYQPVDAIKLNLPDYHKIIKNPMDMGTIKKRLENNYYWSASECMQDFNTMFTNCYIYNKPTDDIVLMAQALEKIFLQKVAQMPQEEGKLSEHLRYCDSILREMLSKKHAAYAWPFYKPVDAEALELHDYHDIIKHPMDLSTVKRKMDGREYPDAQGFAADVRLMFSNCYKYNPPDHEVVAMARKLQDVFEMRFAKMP

SMILES | IC50 [1] [nM] | IC50 [2] [nM] | other results
COC(=O)CC1N=C(c2ccc(Cl)cc2)c2c(sc(C(=O)NCCOCCNC(=O)Cn3c(=O)n([C@H](C)c4ccccn4)c4c5cc(OC)c(-c6c(C)noc6C)cc5ncc43)c2C)-n2c(C)nnc21 (stereo partly drawn) [2S+IBET-PEG1 (24)] | 40.3 | 18.1 | –
COC(=O)CC1N=C(c2ccc(Cl)cc2)c2c(sc(C(=O)NCCOCCOCCNC(=O)Cn3c(=O)n([C@H](C)c4ccccn4)c4c5cc(OC)c(-c6c(C)noc6C)cc5ncc43)c2C)-n2c(C)nnc21 (stereo partly drawn) [2S+IBET-PEG2 (25)] | 23.2 | 5.8 | –
COc1cc2c(cc1-c1c(C)noc1C)ncc1c2n([C@H](C)c2ccccn2)c(=O)n1CC(=O)NCCOCCOCCOCCOCCNC(=O)Cn1c(=O)n([C@@H](C)c2ccccn2)c2c3cc(OC)c(-c4c(C)noc4C)cc3ncc21 [IBETx2-PEG4 (33)] | 60.2 | 73.7 | –
COC(=O)CC1N=C(c2ccc(Cl)cc2)c2c(sc(C(=O)NCCOCCOCCOCCOCCNC(=O)Cn3c(=O)n([C@H](C)c4ccccn4)c4c5cc(OC)c(-c6c(C)noc6C)cc5ncc43)c2C)-n2c(C)nnc21 (stereo partly drawn) [2S+IBET-PEG4 (27)] | 21.7 | 10.3 | –
COc1cc2c(cc1-c1c(C)noc1C)ncc1c2n([C@H](C)c2ccccn2)c(=O)n1CC(=O)NCCOCCOCCOCCNC(=O)Cn1c(=O)n([C@@H](C)c2ccccn2)c2c3cc(OC)c(-c4c(C)noc4C)cc3ncc21 [IBETx2-PEG3 (32)] | 64.6 | 53.4 | –
COc1cc2c(cc1-c1c(C)noc1C)ncc1c2n([C@H](C)c2ccccn2)c(=O)n1CC(=O)NCCOCCOCCOCCNC(=O)C[C@@H]1N=C(c2ccc(Cl)cc2)c2c(sc(C)c2C)-n2c(C)nnc21 [6S+IBET-PEG3 (20)] | 5.78 | 27.4 | –
COC(=O)CC1N=C(c2ccc(Cl)cc2)c2c(sc(C(=O)NCCOCCOCCOCCNC(=O)Cn3c(=O)n([C@H](C)c4ccccn4)c4c5cc(OC)c(-c6c(C)noc6C)cc5ncc43)c2C)-n2c(C)nnc21 (stereo partly drawn) [2S+IBET-PEG3 (26)] | 31.7 | 11.3 | –
COc1cc2c(cc1-c1c(C)noc1C)ncc1c2n([C@H](C)c2ccccn2)c(=O)n1CC(=O)NCCOCCNC(=O)Cn1c(=O)n([C@@H](C)c2ccccn2)c2c3cc(OC)c(-c4c(C)noc4C)cc3ncc21 [IBETx2-PEG1 (30)] | 203 | 108 | –
COC(=O)CC1N=C(c2ccc(Cl)cc2)c2c(sc(C(=O)NCCOCCOCCOCCOCCOCCOCCOCCNC(=O)Cn3c(=O)n([C@H](C)c4ccccn4)c4c5cc(OC)c(-c6c(C)noc6C)cc5ncc43)c2C)-n2c(C)nnc21 (stereo partly drawn) [2S+IBET-PEG7 (28)] | 13.2 | 17.4 | –
Cc1sc2c(c1C)C(c1ccc(Cl)cc1)=NC(CC(=O)NCCOCCOCCOCCOCCOCCOCCOCCNC(=O)C[C@@H]1N=C(c3ccc(Cl)cc3)c3c(sc(C)c3C)-n3c(C)nnc31)c1nnc(C)n1-2 (stereo partly drawn) [MTI (35)] | – | – | Ki [3]: 0.024 nM; Ki [4]: 0.07 nM
COc1cc2c(cc1-c1c(C)noc1C)ncc1c2n([C@H](C)c2ccccn2)c(=O)n1CC(=O)NCCOCCOCCNC(=O)Cn1c(=O)n([C@@H](C)c2ccccn2)c2c3cc(OC)c(-c4c(C)noc4C)cc3ncc21 [IBETx2-PEG2 (31)] | 123 | 117 | –
COC(=O)C[C@@H]1N=C(c2ccc(Cl)cc2)c2c(sc(C(=O)NCCNC(=O)C[C@@H]3N=C(c4ccc(Cl)cc4)c4c(sc(C)c4C)-n4c(C)nnc43)c2C)-n2c(C)nnc21 [(6S+2S)-PEG0 (6)] | 2.36 | 3.58 | Kd [5]: 0.034 nM; Kd [6]: 0.047 nM
COc1cc2c(cc1-c1c(C)noc1C)ncc1c2n([C@H](C)c2ccccn2)c(=O)n1CC(=O)NCCNC(=O)Cn1c(=O)n([C@@H](C)c2ccccn2)c2c3cc(OC)c(-c4c(C)noc4C)cc3ncc21 [IBETx2-PEG0 (29)] | 203 | 209 | –
COC(=O)C[C@@H]1N=C(c2ccc(Cl)cc2)c2c(sc(C(=O)NCCOCCOCCOCCNC(=O)C[C@@H]3N=C(c4ccc(Cl)cc4)c4c(sc(C)c4C)-n4c(C)nnc43)c2C)-n2c(C)nnc21 [(6S+2S)-PEG3 (9)] | 0.878 | 2.25 | Kd [5]: 0.029 nM; Kd [6]: 0.0075 nM
COc1cc2c(cc1-c1c(C)noc1C)ncc1c2n([C@H](C)c2ccccn2)c(=O)n1CC(=O)NCCOCCNC(=O)C[C@@H]1N=C(c2ccc(Cl)cc2)c2c(sc(C)c2C)-n2c(C)nnc21 [6S+IBET-PEG1 (18)] | 12.1 | 54 | –
COC(=O)C[C@@H]1N=C(c2ccc(Cl)cc2)c2c(sc(C(=O)NCCOCCOCCNC(=O)C[C@@H]3N=C(c4ccc(Cl)cc4)c4c(sc(C)c4C)-n4c(C)nnc43)c2C)-n2c(C)nnc21 [(6S+2S)-PEG2 (8)] | 1.84 | 1.28 | Kd [5]: 0.014 nM; Kd [6]: 0.0091 nM
COC(=O)C[C@@H]1N=C(c2ccc(Cl)cc2)c2c(sc(C(=O)NCCOCCOCCOCCOCCNC(=O)C[C@@H]3N=C(c4ccc(Cl)cc4)c4c(sc(C)c4C)-n4c(C)nnc43)c2C)-n2c(C)nnc21 [(6S+2S)-PEG4 (10)] | 1.09 | 2.95 | Kd [5]: 0.023 nM; Kd [6]: 0.0066 nM
COc1cc2c(cc1-c1c(C)noc1C)ncc1c2n([C@H](C)c2ccccn2)c(=O)n1CC(=O)NCCNC(=O)C[C@@H]1N=C(c2ccc(Cl)cc2)c2c(sc(C)c2C)-n2c(C)nnc21 [6S+IBET-PEG0 (17)] | 148 | 404 | –
COC(=O)C[C@@H]1N=C(c2ccc(Cl)cc2)c2c(sc(C(=O)NCCOCCNC(=O)c3sc4c(c3C)C(c3ccc(Cl)cc3)=N[C@H](CC(=O)OC)c3nnc(C)n3-4)c2C)-n2c(C)nnc21 [(2S+2S)-PEG1 (5)] | – | 1.17 | –
COC(=O)C[C@@H]1N=C(c2ccc(Cl)cc2)c2c(sc(C(=O)NCCOCCOCCOCCOCCOCCOCCOCCNC(=O)C[C@@H]3N=C(c4ccc(Cl)cc4)c4c(sc(C)c4C)-n4c(C)nnc43)c2C)-n2c(C)nnc21 [(6S+2S)-PEG7 (11)] | 1.59 | 0.789 | Kd [5]: 0.026 nM; Kd [6]: 0.0059 nM
COC(=O)CC1N=C(c2ccc(Cl)cc2)c2c(sc(C(=O)NCCNC(=O)Cn3c(=O)n([C@H](C)c4ccccn4)c4c5cc(OC)c(-c6c(C)noc6C)cc5ncc43)c2C)-n2c(C)nnc21 (stereo partly drawn) [2S+IBET-PEG0 (23)] | 596 | 439 | –
COc1cc2c(cc1-c1c(C)noc1C)ncc1c2n([C@H](C)c2ccccn2)c(=O)n1CC(=O)NCCOCCOCCNC(=O)C[C@@H]1N=C(c2ccc(Cl)cc2)c2c(sc(C)c2C)-n2c(C)nnc21 [6S+IBET-PEG2 (19)] | 10 | 58.6 | Kd [5]: 0.062 nM
COC(=O)C[C@@H]1N=C(c2ccc(Cl)cc2)c2c(sc(C(=O)NCCOCCNC(=O)C[C@@H]3N=C(c4ccc(Cl)cc4)c4c(sc(C)c4C)-n4c(C)nnc43)c2C)-n2c(C)nnc21 [(6S+2S)-PEG1 (7)] | 0.574 | – | Ki [4]: 0.0027 nM; Kd [7]: 0.066 nM; Ki [8]: 0.29 nM; Ki [9]: 0.11 nM; Ki [10]: 0.42 nM; Ki [11]: 0.13 nM; Kd [12]: 0.039 nM
COc1cc2c(cc1-c1c(C)noc1C)ncc1c2n([C@H](C)c2ccccn2)c(=O)n1CC(=O)NCCOCCOCCOCCOCCNC(=O)C[C@@H]1N=C(c2ccc(Cl)cc2)c2c(sc(C)c2C)-n2c(C)nnc21 [6S+IBET-PEG4 (21)] | 6.2 | 29.5 | –
COc1cc2c(cc1-c1c(C)noc1C)ncc1c2n([C@H](C)c2ccccn2)c(=O)n1CC(=O)NCCOCCOCCOCCOCCOCCOCCOCCNC(=O)C[C@@H]1N=C(c2ccc(Cl)cc2)c2c(sc(C)c2C)-n2c(C)nnc21 [6S+IBET-PEG7 (22)] | 6.1 | 11.5 | –
COc1cc2c(cc1-c1c(C)noc1C)ncc1c2n([C@H](C)c2ccccn2)c(=O)n1CC(=O)NCCOCCOCCOCCOCCOCCOCCOCCNC(=O)Cn1c(=O)n([C@@H](C)c2ccccn2)c2c3cc(OC)c(-c4c(C)noc4C)cc3ncc21 [IBETx2-PEG7 (34)] | 13.6 | 30.5 | –
